Assay [1] concerns bone alkaline phosphatase (BAP). Put plainly: Bone Alkaline Phosphatase levels in treated subjects (Alkphase-B assay). It is filed as in vivo, human. To be noted: men with hormone refractory prostate cancer; 10 mg vs placebo; AUC, Figure 5. How it is done:
(§1) Studies were performed on male subjects with asymptomatic hormone refractory prostate cancer with rising PSA levels and on male subjects with symptomatic hormone refractory prostate cancer with rising PSA levels and pain. Subjects in the phase II studies had castrate levels of testosterone, either due to pharmacologic intervention, via leuprolide (Lupron®) or goserelin (Zoladex®), or via surgical castration. Subjects received ABT-627 or placebo. The following tests were conducted: • ABT-627 was formulated in 2.5 and 10 mg doses. An oral liquid formulation of ABT-627 was also prepared as follows: 1 mg/ml ABT-627, 50% glycerin, 14% alcohol, and water. Matching placebos were also provided.
(§2) Markers of osteoblastic activity were assessed using urine samples. Bone markers include bone alkaline phosphatase (BAP), deoxypridinoline, and N-telopeptide of Type I collagen. Blood samples were collected prior to dosing on Day 1, Day 42, Day 84, Day 168, and every 28 days after Day 168, with a final collection on the last day of the study.
Bone Alkaline Phosphatase levels were determined using the bone-specific Alkphase-B® assay published by Metra Biosystems (Mountain View, CA).

A short description of assay [2]: Bone scan (Tc-99m phosphonate, bone scan index) in treated subjects. It is filed as in vivo, human. The following applies: men with hormone refractory prostate cancer; bone scans; 10 mg versus placebo; Figure 6. As for the experimental part: as §1
Bone scans were performed with an NDA approved, Tc-99m phosphonate type radiopharmaceutical. This technique uses whole body format (skull to feet) so that anterior and posterior images are presented when using a 510 K-approved gamma camera. […] Each site was evaluated against a confidence score of 1 to 5, where 1 is negative, 2 is probably negative, 3 is equivocal, 4 is probably positive, and 5 is definitely positive. […] In addition, in a blinded study, a reference nuclear medicine physician interpreted the bone scans quantitatively as follows: the percent of involved bone was estimated for each individual bone, and the individual bone involvement was summed to calculate a global percent bone scan index (BSI). […]

Assay [3] in a line: Visual Analog Scale (VAS) pain assessment in treated subjects. The following applies: men with symptomatic hormone refractory prostate cancer; 2.5 mg or 10 mg vs placebo; independent of the effects of morphine; AUC, Figure 3. It is filed as in vivo, human. How it is done:
as §1, with “provided. […]” for “provided.”
During the course of the study, pain asessments were done daily, at bedtime, by the subject. […] The log also contained a table on which was recorded all daily pain medication consumed by the patient. […] Clinical personnel who received the logs measured the score by measuring the distance (in mm) from the "no pain" end mark to the point where the subject's line crossed the VAS line. […]
The weekly VAS scores were calculated excluding the lowest and highest score for each week and averaging the remaining five scores. […]

Assay [4] concerns carboxyterminal cross-linked telopeptide of type I collagen (ICTP). Description: Crosslinked N-telopeptide levels in treated subjects (DiaSorin ICTP radioimmunoassay). It is filed as in vivo. The following applies: men with hormone refractory prostate cancer; human serum; 10 mg vs placebo; AUC, Figure 4. As for the experimental part: as §1, §2
Cross-linked N-telopeptide levels were determined using the DiaSorin (Stillwater, MN) assay for the quantitative determination of carboxyterminal cross-linked telopeptide of type I collagen (ICTP) in human serum by equilibrium radioimmunoassay (RIA). […] The bound tracer in the pellet was counted with a gamma counter. […]

Assay [5] concerns Chromagranin-A. Description: Chromagranin-A levels in serum of treated subjects (two site chemiluminescence assay, ICMA). It is filed as in vivo, human. To be noted: men with hormone refractory prostate cancer, 2.5 mg/day, AUC, Figure 8. As for the experimental part:
as §1
(§3) A number of recognized or putative biochemical markers of disease progression have been used to monitor treatment of individuals with prostate cancer. […]
The effect of ABT-627 adminstration on Chromagranin-A levels in human serum samples was determined by proprietary assay conducted at the Nichols Institute. […] The bound, acridinium-labeled material produces light that is detected in a luminometer after addition of triggering agents. […]

In assay [6] the test system is Interleukin-6. Description: Interleukin-6 levels in serum of treated subjects (sandwich immunoassay). To be noted: men with hormone refractory prostate cancer, 2.5 mg or 10 mg vs placebo, AUC, Figure 1. It is filed as in vivo, human. How it is done:
as §1, §3
The effect of ABT-627 adminstration on Interleukin-6 levels in human serum samples was determined at Quintiles Laboratories using a sandwich immunoassay. […] After incubation, the wells were washed, and the bound enzymatic activity was measured using a chromogenic substrate. […]

The test system of assay [7] is prostate specific antigen (PSA). Description: Prostate Specific Antigen level assay (Chiron ACS: Centaur PSA2 sandwich immunoassay) in serum of treated subjects. It is filed as in vivo, human. The following applies: men with hormone refractory prostate cancer; oral 2.5 mg or 10 mg vs placebo; AUC, Figure 2. As for the experimental part: as §1, §3
The effect of ABT-627 administration on prostate specific antigen (PSA) levels in human subject serum samples was determined using the procedure described in the Chiron Diagnostics ACS: Centaur PSA2 Assay. […]
Briefly, a subject population was treated with a placebo or 2.5 mg or 10 mg of ABT-627. […] A direct relationship exists between the amount of PSA present in the patient sample and the RLU's (relative light units) detected.

Assay [8] relates to Acid Phosphatase (ACP). Description: Acid Phosphatase levels in serum of treated subjects (Sigma Diagnostics ACP Procedure No. 435). It is filed as in vivo, human. The following applies: men with hormone refractory prostate cancer, treated vs placebo, AUC, Figure 7. As for the experimental part:
as §1, with “provided. […]” for “provided.”
The effect of ABT-627 administration on Acid Phosphatase levels in human subject serum samples was determined at Quintiles Laboratories using the chemical test described in Sigma Diagnostics Acid Phosphatase (ACP) Procedure No. 435. […] The alpha-naphthol immediately reacts with fast red TR salt to produce a yellow chromophore with an absorbance maximum at 405 nm. The rate of increase in absorbance at 405 nm is directly proportional to ACP activity in the sample. ACP activity was determined in the presence and absence of L-tartrate, the difference being attributed to prostatic acid phosphatase activity. […]

With `CCCCN(CCCC)C(=O)CN1C[C@H](c2ccc3c(c2)OCO3)[C@@H](C(=O)O)[C@@H]1c1ccc(OC)cc1` [ABT-627], the BAP levels entry in assay [1] is “decreased”. In assay [2], the “proportion of total skeketal involvement” value was “decrease in the proportion of total skeketal involvement”. Further, the “VAS scores (pain)” value in assay [3] is “decrease in pain”. Further, in assay [4], the “Crosslinked N-telopeptide levels” value is reported as “decreased”. Also, the “average change from baseline for Chromagranin-A” value in assay [5] is given as “higher”. Further, the “average change in baseline for Interleukin-6” value in assay [6] is on record as “lower”. The “rate of increase of PSA in the serum samples” value in assay [7] was “decreases”. For the same compound, in assay [8], the “average change from baseline for acid phosphatase” value is “decreased” and the “rate of increase for acid phosphatase” value is given as “decreased”.

Source of the values: patent EP1347751B1, “METHODS OF TREATING BONE CANCER AND THE PAIN ASSOCIATED THEREWITH USING ENDOTHELIN ANTAGONISTS” (ABBOTT LABORATORIES, priority 2000, dated 2002).
